# Experimental data: US20100267561A1, “HERBICIDAL PYRIDAZINONE DERIVATIVES” (priority 2007, published 2010)
# Like-named read-outs stand apart in the source and are kept apart here.
# How the values were obtained:
# Format in all cases: in vivo
# [1] = system: wheat (Triticum aestivum); experiment: Test A pre-/postemergence plant response; conditions: Triticum aestivum, 240 h, read-out: Plant response rating, Wheat; for plant injury at 125 g/ha: 125 g ai/ha; for plant injury at 500 g/ha: 500 g ai/ha
# Method in brief: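 Soil: loam blended with sand. Formulation: non-phytotoxic solvent mixture plus surfactant, applied as preemergence directed soil spray and as postemergence spray. Scoring: visual, 0 no effect to 100 complete control, roughly 10 days post-treatment in greenhouse.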
# [2] = system: pigweed (Amaranthus retroflexus); experiment: Test B pre-/postemergence plant response; conditions: Preemergence
# Method in brief: (§1)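 Visual scoring from 0 (no effect) to 100 (complete control) against untreated controls was done 13 to 15 days after greenhouse treatment. Chemicals were formulated in a surfactant-containing non-phytotoxic solvent and applied to soil preemergence or to 1- to 4-leaf (2-18 cm) plants postemergence.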
# [3] = system: eastern black (E.B.) nightshade (Solanum ptycanthum); experiment: Test B pre-/postemergence plant response; conditions: Preemergence
# Method in brief: as §1
# [4] = system: soybean (Glycine max); experiment: Test B pre-/postemergence plant response; conditions: Preemergence
# Method in brief: as §1
# [5] = system: Italian ryegrass (Lolium multiflorum); experiment: Test B pre-/postemergence plant response; conditions: Preemergence
# Method in brief: as §1
# [6] = system: yellow nutsedge (Cyperus esculentus); experiment: Test B pre-/postemergence plant response; conditions: Preemergence
# Method in brief: as §1
# [7] = system: goosegrass (Eleusine indica); experiment: Test B pre-/postemergence plant response; conditions: Preemergence
# Method in brief: as §1
# [8] = system: kochia (Kochia scoparia); experiment: Test B pre-/postemergence plant response; conditions: Preemergence
# Method in brief: as §1
# [9] = system: woolly cupgrass (Eriochloa villosa); experiment: Test B pre-/postemergence plant response; conditions: Preemergence
# Method in brief: as §1
# [10] = system: cocklebur (Xanthium strumarium); experiment: Test B pre-/postemergence plant response; conditions: Preemergence
# Method in brief: as §1
# [11] = system: common ragweed (Ambrosia elation); experiment: Test B pre-/postemergence plant response; conditions: Preemergence
# Method in brief: as §1
# [12] = system: Russian thistle (Salsola iberica); experiment: Test B pre-/postemergence plant response; conditions: Preemergence
# Method in brief: as §1
# [13] = post-emergence, Postemergence, 0 to 100 scale, 0 no effect, 100 complete control
# [14] = pre-emergence, Preemergence, 0 to 100 scale (0 no effect, 100 complete control)
# [15] = 16 g ai/ha, scale 0 to 100 (0 no effect, 100 complete control)
# [16] = 31 g ai/ha, 0 to 100 scale, 0 no effect, 100 complete control
smiles,measurement,setting,value
"Cc1cn(-c2ccc(Cl)cc2)nc1-c1c(O)cnn(C)c1=O [Compound 30, 4-[1-(4-chlorophenyl)-4-methyl-1H-pyrazol-3-yl]-5-hydroxy-2-methyl-3(2H)-pyridazinone]",plant injury at 125 g/ha,[1]; [13],40%
same,plant injury at 500 g/ha,[1]; [13],50%
same,plant injury at 125 g/ha,[1]; [14],40%
same,plant injury at 500 g/ha,[1]; [14],90%
same,pest or weed control at 16 g/ha,"[2]; Amaranthus retroflexus, pre-emergence, 16 g ai/ha, scale 0 to 100 (0 no effect, 100 complete control), read-out: Plant response rating, Pigweed",0%
same,pest or weed control at 31 g/ha,"[2]; Amaranthus retroflexus, pre-emergence, 31 g ai/ha, 0 to 100 scale, 0 no effect, 100 complete control, read-out: Plant response rating, Pigweed",0%
same,pest or weed control at 62 g/ha,"[2]; Amaranthus retroflexus, pre-emergence, 62 g ai/ha, scale 0 to 100, read-out: Plant response rating, Pigweed",0%
same,Pigweed plant response rating,"[2]; 8 g ai/ha, scale 0 to 100",0
same,"Nightshade, E. B. plant response rating","[3]; 8 g ai/ha, scale 0 to 100",0
same,pest or weed control at 16 g/ha,"[3]; Solanum, pre-emergence, 16 g ai/ha, scale 0 to 100 (0 no effect, 100 complete control), read-out: Plant response rating, Nightshade, E. B.",0%
same,pest or weed control at 31 g/ha,"[3]; Solanum, pre-emergence, 31 g ai/ha, 0 to 100 scale, 0 no effect, 100 complete control, read-out: Plant response rating, Nightshade, E. B.",0%
same,pest or weed control at 62 g/ha,"[3]; Solanum, pre-emergence, 62 g ai/ha, scale 0 to 100, read-out: Plant response rating, Nightshade, E. B.",0%
same,plant injury at 16 g/ha,"[4]; Glycine max, pre-emergence, 16 g ai/ha, scale 0 to 100 (0 no effect, 100 complete control), read-out: Plant response rating, Soybean",0%
same,plant injury at 31 g/ha,"[4]; Glycine max, pre-emergence, 31 g ai/ha, 0 to 100 scale, 0 no effect, 100 complete control, read-out: Plant response rating, Soybean",0%
same,plant injury at 62 g/ha,"[4]; Glycine max, pre-emergence, 62 g ai/ha, scale 0 to 100, read-out: Plant response rating, Soybean",0%
same,Soybean plant response rating,"[4]; 8 g ai/ha, scale 0 to 100",0
same,pest or weed control at 16 g/ha,"[5]; Lolium multiflorum, pre-emergence, 16 g ai/ha, scale 0 to 100 (0 no effect, 100 complete control), read-out: Plant response rating, Ryegrass, Italian",10%
same,pest or weed control at 31 g/ha,"[5]; Lolium multiflorum, pre-emergence, 31 g ai/ha, 0 to 100 scale, 0 no effect, 100 complete control, read-out: Plant response rating, Ryegrass, Italian",50%
same,pest or weed control at 62 g/ha,"[5]; Lolium multiflorum, pre-emergence, 62 g ai/ha, scale 0 to 100, read-out: Plant response rating, Ryegrass, Italian",100%
same,"Ryegrass, Italian plant response rating","[5]; 8 g ai/ha, scale 0 to 100",0
same,pest or weed control at 16 g/ha,"[6]; Cyperus, pre-emergence, 16 g ai/ha, scale 0 to 100 (0 no effect, 100 complete control), read-out: Plant response rating, Nutsedge, Yellow",0%
same,pest or weed control at 31 g/ha,"[6]; Cyperus, pre-emergence, 31 g ai/ha, 0 to 100 scale, 0 no effect, 100 complete control, read-out: Plant response rating, Nutsedge, Yellow",0%
same,pest or weed control at 62 g/ha,"[6]; Cyperus, pre-emergence, 62 g ai/ha, scale 0 to 100, read-out: Plant response rating, Nutsedge, Yellow",0%
same,"Nutsedge, Yellow plant response rating","[6]; 8 g ai/ha, scale 0 to 100",0
same,pest or weed control at 16 g/ha,"[7]; Eleusine indica, pre-emergence, 16 g ai/ha, scale 0 to 100 (0 no effect, 100 complete control), read-out: Plant response rating, Goosegrass",80%
same,pest or weed control at 31 g/ha,"[7]; Eleusine indica, pre-emergence, 31 g ai/ha, 0 to 100 scale, 0 no effect, 100 complete control, read-out: Plant response rating, Goosegrass",100%
same,pest or weed control at 62 g/ha,"[7]; Eleusine indica, pre-emergence, 62 g ai/ha, scale 0 to 100, read-out: Plant response rating, Goosegrass",100%
same,Goosegrass plant response rating,"[7]; 8 g ai/ha, scale 0 to 100",80
same,"Plant response rating, Kochia",[8]; [15],0
same,"Plant response rating, Kochia",[8]; [16],0
same,"Plant response rating, Kochia","[8]; 62 g ai/ha, scale 0 to 100",0
same,Kochia plant response rating,"[8]; 8 g ai/ha, scale 0 to 100",0
same,pest or weed control at 16 g/ha,"[9]; Eriochloa villosa, pre-emergence, 16 g ai/ha, scale 0 to 100 (0 no effect, 100 complete control), read-out: Plant response rating, Cupgrass, Woolly",75%
same,pest or weed control at 31 g/ha,"[9]; Eriochloa villosa, pre-emergence, 31 g ai/ha, 0 to 100 scale, 0 no effect, 100 complete control, read-out: Plant response rating, Cupgrass, Woolly",98%
same,pest or weed control at 62 g/ha,"[9]; Eriochloa villosa, pre-emergence, 62 g ai/ha, scale 0 to 100, read-out: Plant response rating, Cupgrass, Woolly",100%
same,"Cupgrass, Woolly plant response rating","[9]; 8 g ai/ha, scale 0 to 100",50
same,Cocklebur plant response rating,"[10]; 8 g ai/ha, scale 0 to 100",0
same,pest or weed control at 16 g/ha,"[10]; Xanthium strumarium, pre-emergence, 16 g ai/ha, scale 0 to 100 (0 no effect, 100 complete control), read-out: Plant response rating, Cocklebur",0%
same,pest or weed control at 31 g/ha,"[10]; Xanthium strumarium, pre-emergence, 31 g ai/ha, 0 to 100 scale, 0 no effect, 100 complete control, read-out: Plant response rating, Cocklebur",0%
same,pest or weed control at 62 g/ha,"[10]; Xanthium strumarium, pre-emergence, 62 g ai/ha, scale 0 to 100, read-out: Plant response rating, Cocklebur",0%
same,pest or weed control at 16 g/ha,"[11]; Ambrosia, pre-emergence, 16 g ai/ha, scale 0 to 100 (0 no effect, 100 complete control), read-out: Plant response rating, Ragweed",0%
same,pest or weed control at 31 g/ha,"[11]; Ambrosia, pre-emergence, 31 g ai/ha, 0 to 100 scale, 0 no effect, 100 complete control, read-out: Plant response rating, Ragweed",0%
same,pest or weed control at 62 g/ha,"[11]; Ambrosia, pre-emergence, 62 g ai/ha, scale 0 to 100, read-out: Plant response rating, Ragweed",0%
same,Ragweed plant response rating,"[11]; 8 g ai/ha, scale 0 to 100",0
same,"Plant response rating, Russian Thistle",[12]; [15],0
same,"Plant response rating, Russian Thistle",[12]; [16],0
same,"Plant response rating, Russian Thistle","[12]; 62 g ai/ha, scale 0 to 100",0
same,Russian Thistle plant response rating,"[12]; 8 g ai/ha, scale 0 to 100",0
